Assay results published in US20240252557A1, “MULTIBIOTIC SUPPLEMENTS” (Natals, Inc., priority 2023, published 2024).

Test system: Caco-2/THP1-Blue cell co-cultures
Experiment: Transepithelial electrical resistance (TEER) of Caco-2/THP1-Blue co-cultures, model of mild intestinal barrier disruption
Format: cell-based, human
Conditions: 48 h colonic fermentation samples, filtered and sterilized; TEER after 24 h
Source text: This study used an in vitro cell co-culture to create a model of mild intestinal barrier disruption. This method utilizes a co-culture model of intestinal epithelial-like cells (Caco-2 cells) and human monocytes/macrophages (THP1 cells) and is based on the work of Satsu and colleagues (PMID: 17010338) and is described by Daguet et al. (doi: 10.1016r.jff.2015.11.005). Caco-2 cells are allowed to grow into a monolayer that has physiological properties of the intestinal lining, including tight junctions. Tight junction proteins keep adjacent epithelial cells together, which forms a barrier that is virtually impermeable to macromolecules. The “tightness” of tight junctions can be measured as transepithelial electrical resistance (TEER), with a high TEER corresponding to a tighter barrier. THP1 monocytes were originally isolated from a human patient with acute leukemia. When stimulated with phorbol 12-myristate 13-acetate (PMA), these cells develop into macrophage-like cells that are able to adhere and are primed for toll-like receptor (TLR) signaling. […] TEER was measured after pre-treatment of the cell co-cultures, representing a baseline (0 hour) value. […] Changes in TEER values were measured after 24 hours.
TEER was measured 24 h after pre-treatment of the co-cultures and each 24 h value was normalized to its corresponding Oh value and is shown as percentage of initial value. […]

## CCCC(=O)OCC(COC(=O)CCC)OC(=O)CCC [tributyrin]
  barrier integrity (TEER) compared to the blank control: improved barrier integrity
